One assay has as its target T1, HCV NS3-NS4A protease (Hepatitis C virus genotype 1a, UniProt P27958).
T1 construct: The buffer, KK4A, DTT, and tNS3 were combined
The assay can be described thus: HCV Ki Assay (enzyme, Example 5). Type of assay: biochemical. The settings on record: Ki values, tested according to Example 5 (enzyme); 5AB substrate, tNS3 with KK4A. On the procedure:
HPLC Microbore Method for Separation of 5AB Substrate and Products
NH2-Glu-Asp-Val-Val-(alpha)Abu-Cys-Ser-Met-Ser-Tyr-COOH
A stock solution of 20 mM 5AB (or concentration of your choice) was made in DMSO w/0.2M DTT. This was stored in aliquots at −20 C.
Buffer: 50 mM HEPES, pH 7.8; 20% glycerol; 100 mM NaCl
Total assay volume was 100 μL
The buffer, KK4A, DTT, and tNS3 were combined; distributed 78 μL each into wells of 96 well plate. This was incubated at 30 C for ˜5-10 min.
2.5 μL of appropriate concentration of test compound was dissolved in DMSO (DMSO only for control) and added to each well. This was incubated at room temperature for 15 min.
Initiated reaction by addition of 20 μL of 250 μM 5AB substrate (25 μM concentration is equivalent or slightly lower than the Km for 5AB).
Incubated for 20 min at 30 C.
Terminated reaction by addition of 25 μL of 10% TFA
Transferred 120 μL aliquots to HPLC vials
Separated SMSY product from substrate and KK4A by the following method:
Microbore Separation Method:
Instrumentation: Agilent 1100
Column thermostated chamber G1316A
Diode array detector G1315A
Solvent A=HPLC grade water+0.1% TFA
Solvent B=HPLC grade acetonitrile+0.1% TFA
Stop time: 17 min Post-run time: 10 min.

Assay [1] concerns Cells containing hepatitis C virus (HCV) replicon. Kind of assay: HCV Replicon Cell Assay (Example 4). Type of assay: cell-based. The settings on record: 48 h, tested according to Example 4 (cell), 50% inhibition of HCV RNA level, 48-hour incubation. On the procedure: HCV Replicon Cell Assay Protocol
Cells containing hepatitis C virus (HCV) replicon were maintained in DMEM containing 10% fetal bovine serum (FBS), 0.25 mg per ml of G418, with appropriate supplements (media A).
On day 1, replicon cell monolayer was treated with a trypsin:EDTA mixture, removed, and then media A was diluted into a final concentration of 100,000 cells per ml wit. 10,000 cells in 100 ul were plated into each well of a 96-well tissue culture plate, and cultured overnight in a tissue culture incubator at 37° C.
On day 2, compounds (in 100% DMSO) were serially diluted into DMEM containing 2% FBS, 0.5% DMSO, with appropriate supplements (media B). The final concentration of DMSO was maintained at 0.5% throughout the dilution series.
Media on the replicon cell monolayer was removed, and then media B containing various concentrations of compounds was added. Media B without any compound was added to other wells as no compound controls.
Cells were incubated with compound or 0.5% DMSO in media B for 48 hours in a tissue culture incubator at 37° C. At the end of the 48-hour incubation, the media was removed, and the replicon cell monolayer was washed once with PBS and stored at −80° C. prior to RNA extraction.
Culture plates with treated replicon cell monolayers were thawed, and a fixed amount of another RNA virus, such as Bovine Viral Diarrhea Virus (BVDV) was added to cells in each well, RNA extraction reagents (such as reagents from RNeasy kits) were added to the cells immediately to avoid degradation of RNA. Total RNA was extracted according the instruction of manufacturer with modification to improve extraction efficiency and consistency. Finally, total cellular RNA, including HCV replicon RNA, was eluted and stored at −80° C. until further processing.
A Taqman real-time RT-PCR quantification assay was set up with two sets of specific primers and probe. One was for HCV and the other was for BVDV. Total RNA extractants from treated HCV replicon cells was added to the PCR reactions for quantification of both HCV and BVDV RNA in the same PCR well. Experimental failure was flagged and rejected based on the level of BVDV RNA in each well. The level of HCV RNA in each well was calculated according to a standard curve run in the same PCR plate. The percentage of inhibition or decrease of HCV RNA level due to compound treatment was calculated using the DMSO or no compound control as 0% of inhibition. The IC50 (concentration at which 50% inhibition of HCV RNA level is observed) was calculated from the titration curve of any given compound.

The structures appear in SMILES notation. A value given as a limit tells only on which side of the number the result lay.

T1 sequence (P27958 1658-1711): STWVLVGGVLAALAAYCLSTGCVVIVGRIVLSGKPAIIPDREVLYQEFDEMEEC
T1 sequence (P27958 1027-1208): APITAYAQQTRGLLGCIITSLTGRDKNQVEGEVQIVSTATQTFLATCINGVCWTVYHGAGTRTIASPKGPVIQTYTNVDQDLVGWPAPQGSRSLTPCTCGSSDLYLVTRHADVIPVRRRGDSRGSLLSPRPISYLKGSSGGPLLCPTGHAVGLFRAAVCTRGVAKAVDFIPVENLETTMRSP

Turning to `CCC[C@H](NC(=O)[C@@H]1C[C@@H](Oc2ccnc3cc(C(F)(F)F)ccc23)CN1C(=O)[C@@H](NC(=O)[C@@H](NC(=O)c1cnccn1)C1CCCCC1)C(C)(C)C)C(=O)C(=O)NC1CC1` [Compound 67], the Ki at HCV NS3-NS4A protease is less than 100 nM. In addition, in assay [1], the IC50 is less than 500 nM.

`CCC[C@H](NC(=O)[C@@H]1C[C@@H](Oc2ccnc3cc(OC)ccc23)CN1C(=O)[C@@H](NC(=O)[C@@H](NC(=O)c1cnccn1)C1CCCCC1)C(C)(C)C)C(=O)C(=O)NC1CC1` [Compound 41]: the Ki at HCV NS3-NS4A protease was less than 100 nM. Also, the IC50 in assay [1] is greater than 1000 nM.

`CCC[C@H](NC(=O)[C@@H]1C[C@@H](Oc2cccc3ccccc23)CN1C(=O)[C@@H](NC(=O)[C@@H](NC(=O)c1cnccn1)C1CCCCC1)C(C)(C)C)C(=O)C(=O)NC1CC1` [Compound 36]: the Ki on HCV NS3-NS4A protease is less than 100 nM. The same compound returned a half-maximal inhibitory concentration (IC50) in assay [1] of less than 500 nM.

Compound `CCC[C@H](NC(=O)C1C[C@@H](Oc2cc(C(F)(F)F)cc(C(F)(F)F)c2)CN1C(=O)[C@@H](NC(=O)[C@@H](NC(=O)c1cnccn1)C1CCCCC1)C(C)(C)C)C(=O)C(=O)NC1CC1` (stereo partly drawn) [Compound 11] registered a Ki at HCV NS3-NS4A protease greater than 300 nM. Besides, the IC50 in assay [1] was greater than 1000 nM.

The compound `CCC[C@H](NC(=O)[C@@H]1C[C@@H](Oc2cccc(OC(F)(F)F)c2)CN1C(=O)[C@@H](NC(=O)[C@@H](NC(=O)c1cnccn1)C1CCCCC1)C(C)(C)C)C(=O)C(=O)NC1CC1` [Compound 16] returned a Ki on HCV NS3-NS4A protease of 100 to 300 nM. The compound further came in with an IC50 in assay [1] of 500 to 1000 nM.

`CCC[C@H](NC(=O)[C@@H]1C[C@@H](Oc2ccc(C(=O)OC(C)C)cc2)CN1C(=O)[C@@H](NC(=O)[C@@H](NC(=O)c1cnccn1)C1CCCCC1)C(C)(C)C)C(=O)C(=O)NC1CC1` [Compound 61] gave a Ki at HCV NS3-NS4A protease of less than 100 nM. The compound further displayed an IC50 in assay [1] of less than 500 nM.

In the case of `CCC[C@H](NC(=O)C1C[C@@H](Oc2c(F)cccc2F)CN1C(=O)[C@@H](NC(=O)[C@@H](NC(=O)c1cnccn1)C1CCCCC1)C(C)(C)C)C(=O)C(=O)NC1CC1` (stereo partly drawn) [Compound 10], the Ki at HCV NS3-NS4A protease was 100 to 300 nM. Moreover, the IC50 in assay [1] lay within 500 to 1000 nM.

`CCC[C@H](NC(=O)[C@@H]1C[C@@H](Oc2ncnc3ccccc23)CN1C(=O)[C@@H](NC(=O)[C@@H](NC(=O)c1cnccn1)C1CCCCC1)C(C)(C)C)C(=O)C(=O)NC1CC1` [Compound 42] had a Ki at HCV NS3-NS4A protease of less than 100 nM. The compound further displayed an IC50 in assay [1] of less than 500 nM.

The compound `CCC[C@H](NC(=O)[C@@H]1C[C@@H](Oc2ccc(Cl)c3ccccc23)CN1C(=O)[C@@H](NC(=O)[C@@H](NC(=O)c1cnccn1)C1CCCCC1)C(C)(C)C)C(=O)C(=O)NC1CC1` [Compound 40] registered a Ki on HCV NS3-NS4A protease of less than 100 nM. For the same compound, in assay [1], the IC50 is less than 500 nM.

`CCC[C@H](NC(=O)[C@@H]1C[C@@H](Oc2ccc(C(F)(F)F)cc2)CN1C(=O)[C@@H](NC(=O)[C@@H](NC(=O)c1cnccn1)C1CCCCC1)C(C)(C)C)C(=O)C(=O)NC1CC1` [Compound 13] came in with a Ki at HCV NS3-NS4A protease of 100 to 300 nM. The compound also came in with an IC50 in assay [1] of less than 500 nM.

`CCC[C@H](NC(=O)[C@@H]1C[C@@H](Oc2ccc(F)cc2)CN1C(=O)[C@@H](NC(=O)[C@@H](NC(=O)c1cnccn1)C1CCCCC1)C(C)(C)C)C(=O)C(=O)NC1CC1` [Compound 43] came in with a Ki on HCV NS3-NS4A protease of less than 100 nM. In assay [1], this compound registered an IC50 of less than 500 nM.

Turning to `CCCC(NC(=O)[C@@H]1C[C@@H](Oc2ccccc2)CN1C(=O)[C@@H](NC(=O)[C@@H](NC(=O)c1cnccn1)C1CCCCC1)C(C)(C)C)C(=O)C(=O)NC1CC1` (stereo partly drawn) [Compound 34], on HCV NS3-NS4A protease, the Ki fell in the range of 100 to 300 nM. Besides, the IC50 in assay [1] was less than 500 nM.

In turn, `CCC[C@H](NC(=O)[C@@H]1C[C@@H](Oc2cccc(C(=O)OC)c2)CN1C(=O)[C@@H](NC(=O)[C@@H](NC(=O)c1cnccn1)C1CCCCC1)C(C)(C)C)C(=O)C(=O)NC1CC1` [Compound 45] yielded a Ki on HCV NS3-NS4A protease of less than 100 nM. Also, in assay [1], the IC50 is less than 500 nM.

As to `CCC[C@H](NC(=O)[C@@H]1C[C@@H](Oc2cccc(C(=O)NC)c2)CN1C(=O)[C@@H](NC(=O)[C@@H](NC(=O)c1cnccn1)C1CCCCC1)C(C)(C)C)C(=O)C(=O)NC1CC1` [Compound 46], the Ki at HCV NS3-NS4A protease was less than 100 nM. The same compound yielded an IC50 in assay [1] of less than 500 nM.

With `CCC[C@H](NC(=O)[C@@H]1C[C@@H](Oc2ccc(OC(F)(F)F)cc2)CN1C(=O)[C@@H](NC(=O)[C@@H](NC(=O)c1cnccn1)C1CCCCC1)C(C)(C)C)C(=O)C(=O)NC1CC1` [Compound 14], the Ki on HCV NS3-NS4A protease lay in the range of 100 to 300 nM. This compound also yielded an IC50 in assay [1] of less than 500 nM.

The values above are taken from patent US8217048B2, “Inhibitors of serine proteases, particularly HCV NS3-NS4A protease” (Vertex Pharmaceuticals Incorporated, priority 2003, dated 2012).
